#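 All cell lines were grown in 96-well plates and treated with compound for 48 hours. GI50 = concentration required for 50% inhibition of growth.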 Activity calls are given as the source filed them. Cut-off read from the data, not from the text of the source: active = GI50 up to about 1.1 µM and inactive = higher.
# Key:
# Assay in all cases: NCI anticancer screen, dose series, 48 h
# 786-0 = tested on: 786-0
# A549 = tested on: A549
# ACHN = tested on: ACHN
# BT-549 = tested on: BT-549
# CAKI-1 = tested on: CAKI-1
# CCRF-CEM = tested on: CCRF-CEM
# COLO 205 = tested on: COLO 205
# DU-145 = tested on: DU-145
# EKVX = tested on: EKVX
# HCT-116 = tested on: HCT-116
# HCT-15 = tested on: HCT-15
# HL-60 = tested on: HL-60
# HOP-62 = tested on: HOP-62
# HOP-92 = tested on: HOP-92
# HT-29 = tested on: HT-29
# Hs-578T = tested on: Hs-578T
# IGROV-1 = tested on: IGROV-1
# K562 = tested on: K562
# KM12 = tested on: KM12
# LOX IMVI = tested on: LOX IMVI
# M14 = tested on: M14
# MCF7 = tested on: MCF7
# MDA-MB-435 = tested on: MDA-MB-435
# MDA-N = tested on: MDA-N
# MOLT-4 = tested on: MOLT-4
# Malme-3M = tested on: Malme-3M
# NCI-H226 = tested on: NCI-H226
# NCI-H23 = tested on: NCI-H23
# NCI-H460 = tested on: NCI-H460
# NCI-H522 = tested on: NCI-H522
# NCI/ADR-RES = tested on: NCI/ADR-RES
# OVCAR-3 = tested on: OVCAR-3
# OVCAR-4 = tested on: OVCAR-4
# OVCAR-5 = tested on: OVCAR-5
# OVCAR-8 = tested on: OVCAR-8
# PC-3 = tested on: PC-3
# RPMI-8226 = tested on: RPMI-8226
# SF-268 = tested on: SF-268
# SF-295 = tested on: SF-295
# SK-MEL-28 = tested on: SK-MEL-28
# SK-MEL-2 = tested on: SK-MEL-2
# SK-MEL-5 = tested on: SK-MEL-5
# SK-OV-3 = tested on: SK-OV-3
# SN12C = tested on: SN12C
# SNB-19 = tested on: SNB-19
# SNB-75 = tested on: SNB-75
# SR = tested on: SR
# SW-620 = tested on: SW-620
# T47D = tested on: T47D
# TK-10 = tested on: TK-10
# U-251 = tested on: U-251
# UACC-257 = tested on: UACC-257
# UACC-62 = tested on: UACC-62
# UO-31 = tested on: UO-31
# HCC 2998 = tested on: HCC 2998
# MDA-MB-231 = tested on: MDA-MB-231
# SF-539 = tested on: SF-539
smiles,measurement,setting,value
CCCCS(=O)(=O)CCC(N)P(=O)(O)O (stereo unspecified),GI50,786-0,> 100 µM (inactive)
same,GI50,A549,> 100 µM (inactive)
same,GI50,ACHN,> 100 µM (inactive)
same,GI50,BT-549,> 100 µM (inactive)
same,GI50,CAKI-1,> 100 µM (inactive)
same,GI50,CCRF-CEM,> 100 µM (inactive)
same,GI50,COLO 205,> 100 µM (inactive)
same,GI50,DU-145,> 100 µM (inactive)
same,GI50,EKVX,> 100 µM (inactive)
same,GI50,HCT-116,> 100 µM (inactive)
same,GI50,HCT-15,> 100 µM
same,GI50,HL-60,> 100 µM (inactive)
same,GI50,HOP-62,> 100 µM (inactive)
same,GI50,HOP-92,> 100 µM (inactive)
same,GI50,HT-29,> 100 µM (inactive)
same,GI50,Hs-578T,> 100 µM (inactive)
same,GI50,IGROV-1,> 100 µM (inactive)
same,GI50,K562,> 100 µM (inactive)
same,GI50,KM12,> 100 µM (inactive)
same,GI50,LOX IMVI,> 100 µM (inactive)
same,GI50,M14,> 100 µM (inactive)
same,GI50,MCF7,> 100 µM (inactive)
same,GI50,MDA-MB-435,> 100 µM (inactive)
same,GI50,MDA-N,> 100 µM (inactive)
same,GI50,MOLT-4,> 100 µM (inactive)
same,GI50,Malme-3M,> 100 µM (inactive)
same,GI50,NCI-H226,> 100 µM (inactive)
same,GI50,NCI-H23,> 100 µM (inactive)
same,GI50,NCI-H460,> 100 µM (inactive)
same,GI50,NCI-H522,> 100 µM (inactive)
same,GI50,NCI/ADR-RES,> 100 µM (inactive)
same,GI50,OVCAR-3,> 100 µM (inactive)
same,GI50,OVCAR-4,> 100 µM (inactive)
same,GI50,OVCAR-5,> 100 µM (inactive)
same,GI50,OVCAR-8,> 100 µM (inactive)
same,GI50,PC-3,> 100 µM (inactive)
same,GI50,RPMI-8226,> 100 µM (inactive)
same,GI50,SF-268,> 100 µM (inactive)
same,GI50,SF-295,> 100 µM (inactive)
same,GI50,SK-MEL-28,> 100 µM (inactive)
same,GI50,SK-MEL-2,> 100 µM (inactive)
same,GI50,SK-MEL-5,> 100 µM (inactive)
same,GI50,SK-OV-3,> 100 µM (inactive)
same,GI50,SN12C,> 100 µM (inactive)
same,GI50,SNB-19,> 100 µM (inactive)
same,GI50,SNB-75,> 100 µM (inactive)
same,GI50,SR,> 100 µM (inactive)
same,GI50,SW-620,> 100 µM (inactive)
same,GI50,T47D,> 100 µM (inactive)
same,GI50,TK-10,> 100 µM (inactive)
same,GI50,U-251,> 100 µM (inactive)
same,GI50,UACC-257,> 100 µM (inactive)
same,GI50,UACC-62,> 100 µM (inactive)
same,GI50,UO-31,> 100 µM (inactive)
COc1nc(=O)n(C2CC(F)C(CO)O2)cc1C (stereo unspecified),GI50,786-0,> 100 µM (inactive)
same,GI50,A549,> 100 µM (inactive)
same,GI50,ACHN,> 100 µM (inactive)
same,GI50,BT-549,> 100 µM (inactive)
same,GI50,CAKI-1,> 100 µM (inactive)
same,GI50,CCRF-CEM,> 100 µM (inactive)
same,GI50,COLO 205,> 100 µM (inactive)
same,GI50,DU-145,> 100 µM (inactive)
same,GI50,EKVX,> 100 µM (inactive)
same,GI50,HCC 2998,> 100 µM (inactive)
same,GI50,HCT-116,> 100 µM (inactive)
same,GI50,HCT-15,> 100 µM
same,GI50,HL-60,> 100 µM (inactive)
same,GI50,HOP-62,> 100 µM (inactive)
same,GI50,HT-29,> 100 µM (inactive)
same,GI50,Hs-578T,> 100 µM (inactive)
same,GI50,IGROV-1,> 100 µM (inactive)
same,GI50,K562,> 100 µM (inactive)
same,GI50,KM12,> 100 µM (inactive)
same,GI50,LOX IMVI,> 100 µM (inactive)
same,GI50,M14,> 100 µM (inactive)
same,GI50,MCF7,> 100 µM (inactive)
same,GI50,MDA-MB-231,> 100 µM (inactive)
same,GI50,MDA-MB-435,> 100 µM (inactive)
same,GI50,MDA-N,> 100 µM (inactive)
same,GI50,MOLT-4,> 100 µM (inactive)
same,GI50,Malme-3M,> 100 µM (inactive)
same,GI50,NCI-H226,> 100 µM (inactive)
same,GI50,NCI-H23,> 100 µM (inactive)
same,GI50,NCI-H460,> 100 µM (inactive)
same,GI50,NCI-H522,> 100 µM (inactive)
same,GI50,NCI/ADR-RES,> 100 µM (inactive)
same,GI50,OVCAR-3,> 100 µM (inactive)
same,GI50,OVCAR-4,> 100 µM (inactive)
same,GI50,OVCAR-8,> 100 µM (inactive)
same,GI50,RPMI-8226,> 100 µM (inactive)
same,GI50,SF-268,> 100 µM (inactive)
same,GI50,SF-295,> 100 µM (inactive)
same,GI50,SF-539,> 100 µM (inactive)
same,GI50,SK-MEL-28,> 100 µM (inactive)
same,GI50,SK-MEL-2,> 10 µM (inactive)
same,GI50,SK-MEL-5,> 100 µM (inactive)
same,GI50,SN12C,> 100 µM (inactive)
same,GI50,SNB-19,> 100 µM (inactive)
same,GI50,SR,> 100 µM (inactive)
same,GI50,SW-620,> 100 µM (inactive)
same,GI50,T47D,> 100 µM (inactive)
same,GI50,TK-10,> 100 µM (inactive)
same,GI50,U-251,> 100 µM (inactive)
same,GI50,UACC-257,> 100 µM (inactive)
same,GI50,UACC-62,> 100 µM (inactive)
same,GI50,UO-31,> 100 µM (inactive)

# — ChEMBL document CHEMBL1201862, “PubChem BioAssay data set” (2004)
